From article PMC11372837, “Albumin-Mediated Drug Uptake by Organic Anion Transporter 1/3 Is Real: Implications for the Prediction of Active Renal Secretion Clearance” (Molecular Pharmaceutics, 2024)
Several values for one entry are separate records, joined by “and”; a condition that tells them apart may be missing. Equal values may be shown once. Read-outs that look alike come from different tables or passages of the source.

How the values were obtained:
human serum albumin = human serum albumin (Homo sapiens, UniProt P02768); assay: Extent of albumin binding: high throughput equilibrium dialysis (fu,inc, Kd); type: in vitro ADME; conditions: for Kd: estimated using eq 3 from measured fu,inc; for fraction unbound at 6 h: human
Protocol: Briefly, cellulose membranes with MWCO of 12–14 kDa were submerged in distilled water for 1 h, followed by 20% ethanol/distilled water for at least 20 min. Prior to the start of the experiment, cellulose membranes were rinsed in distilled water and submerged in blank DPBS for 15 min. The HTDialysis device was assembled according to the manufacturer’s instructions (https://www.htdialysis.com). Blank DPBS was first added to the receiver side of the dialysis membranes, followed by DPBS spiked with HSA and the OAT1/3 substrate to the donor side. Each HSA concentration was tested in triplicates. The HTDialysis device was sealed with an adhesive sealing film and incubated in a water bath at 37 °C for 6 h shaken at 150 rpm. Once the assay was completed, aliquots from both receiver and donor wells were transferred to a 96-well plate and stored at −80 °C until analysis. DPBS spiked with the OAT1/3 substrate from both before and after incubation was stored to assess the recovery and stability of the samples. To prepare the sample for analysis, donor and receiver samples were matrix-matched and quenched with ice-cold acetonitrile containing an internal standard (0.5 μM gemfibrozil or 0.05 μM buspirone).

OAT1/3 [1] = assay: Bottom-up IVIVE of CLint,sec, CLsec and CLr, relative expression factor (REF) approach; design: species or system human; conditions: for CLint,sec Predicted 0% HSA / CLint,sec Predicted 1% HSA / CLint,sec Predicted 4% HSA / CLsec Predicted 0% HSA / CLsec Predicted 1% HSA / CLsec Predicted 4% HSA: REF approach
Text: (§1) The relative expression and relative activity factor (REF and RAF) are unitless scalers that account for in vivo versus in vitro differences in the abundance and activity of OAT1/3 and are used for IVIVE of in vitro CLint,u,active. REF was derived from the OAT1/3 expression ratio between the in vivo human kidney cortex to the in vitro ciPTEC-OAT1/3, as shown in eq 7: [drawing 8] 7 Absolute abundance of OAT1 and OAT3 in the human kidney cortex was previously quantified by our group using the filter-aided sample preparation protocol and global proteomic analysis.[44]

OAT1/3 [2] = assay: Bottom-up IVIVE of CLint,sec, CLsec and CLr, relative activity factor (RAF) approach; design: species or system human
Text: as §1

[3] = human, in vivo
[4] = in vivo, plasma renal clearance, clinical data; cited from earlier work
OAT1 = target: T1, OAT1 (Homo sapiens, UniProt Q4U2R8); assay: OAT1 uptake study in ciPTEC-OAT1; conditions: for OAT1 substrate status (uptake in ciPTEC-OAT1): control vs probenecid 300 μM; for ratio of CLint,u,active (R) (HSA/control) 1%: OAT1, 1% HSA vs control; for ratio of CLint,u,active (R) (HSA/control) 1% / ratio of CLint,u,active (R) (HSA/control) 4%: unbound concentration kept constant; for ratio of CLint,u,active (R) (HSA/control) 4%: OAT1, 4% HSA vs control; for Vb,max OAT1, Active and Passive Uptake: eq 4 fitted to CLint,u; for Vb,max OAT1, Active and Passive Uptake / Vb,max OAT1, Active Uptake Only: mean ± S.D.; for Vb,max OAT1, Active Uptake Only: eq 4 fitted to CLint,u,active, Kd,m fixed from OAT3 data; for Change to passive diffusion clearance upon inclusion of 1% HSA: probenecid condition, preliminary experiments
T1 sequence (Q4U2R8 1-563): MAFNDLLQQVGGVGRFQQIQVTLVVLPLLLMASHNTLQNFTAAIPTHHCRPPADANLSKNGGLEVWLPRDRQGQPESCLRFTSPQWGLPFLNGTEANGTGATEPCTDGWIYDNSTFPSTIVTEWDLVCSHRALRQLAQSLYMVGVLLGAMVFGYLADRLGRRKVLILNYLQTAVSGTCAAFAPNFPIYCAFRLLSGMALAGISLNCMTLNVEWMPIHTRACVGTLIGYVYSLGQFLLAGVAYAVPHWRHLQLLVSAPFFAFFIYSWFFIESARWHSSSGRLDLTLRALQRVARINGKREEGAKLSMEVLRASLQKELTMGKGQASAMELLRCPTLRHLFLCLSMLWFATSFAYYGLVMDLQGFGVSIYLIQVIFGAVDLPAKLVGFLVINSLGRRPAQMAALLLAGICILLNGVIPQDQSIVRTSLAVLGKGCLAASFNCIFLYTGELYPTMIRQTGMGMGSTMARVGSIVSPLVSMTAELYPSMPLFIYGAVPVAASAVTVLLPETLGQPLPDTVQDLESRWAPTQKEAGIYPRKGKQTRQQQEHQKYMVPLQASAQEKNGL

OAT3 = target: T2, OAT3 (Homo sapiens, UniProt Q8TCC7); assay: OAT3 uptake study in ciPTEC-OAT3; conditions: for ratio of CLint,u,active (R) (HSA/control) 1%: OAT3, 1% HSA vs control; for ratio of CLint,u,active (R) (HSA/control) 4%: OAT3, 4% HSA vs control; for Vb,max OAT3, Active and Passive Uptake: eq 4 fitted to CLint,u; for Vb,max OAT3, Active and Passive Uptake / Vb,max OAT3, Active Uptake Only: mean ± S.D.; for Vb,max OAT3, Active Uptake Only: eq 4 fitted to CLint,u,active; for OAT3 substrate status (uptake in ciPTEC-OAT3): control vs probenecid 300 μM
T2 sequence (Q8TCC7 1-542): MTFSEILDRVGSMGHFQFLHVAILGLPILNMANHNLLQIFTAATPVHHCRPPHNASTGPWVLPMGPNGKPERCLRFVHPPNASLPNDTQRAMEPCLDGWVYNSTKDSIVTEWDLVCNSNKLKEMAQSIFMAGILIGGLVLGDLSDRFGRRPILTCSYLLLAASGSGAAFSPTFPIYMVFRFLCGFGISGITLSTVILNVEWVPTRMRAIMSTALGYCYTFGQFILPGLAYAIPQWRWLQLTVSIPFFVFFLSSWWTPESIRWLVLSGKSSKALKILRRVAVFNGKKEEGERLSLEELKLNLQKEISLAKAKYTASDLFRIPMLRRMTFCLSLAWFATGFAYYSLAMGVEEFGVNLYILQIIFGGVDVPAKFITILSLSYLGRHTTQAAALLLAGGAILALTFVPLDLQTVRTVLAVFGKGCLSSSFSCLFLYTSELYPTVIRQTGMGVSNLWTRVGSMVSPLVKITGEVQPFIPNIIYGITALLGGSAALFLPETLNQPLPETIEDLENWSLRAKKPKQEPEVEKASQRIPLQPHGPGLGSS

[5] = Observed in vivo (clinical) renal, secretion and intrinsic secretion clearance; conditions: in vivo; for CLint,sec Observed: back-calculated from clinical data; for CLsec Observed: plasma secretion clearance
[6] = 1% human serum albumin in DPBS, 1% HSA, equilibrium dialysis 37 °C 6 h, mean ± SD, read-out: fu,inc (1%)
[7] = 4% HSA in DPBS, 4% HSA, equilibrium dialysis 37 °C 6 h, mean ± SD, read-out: fu,inc (4%)

human serum albumin, sequence (P02768 25-609): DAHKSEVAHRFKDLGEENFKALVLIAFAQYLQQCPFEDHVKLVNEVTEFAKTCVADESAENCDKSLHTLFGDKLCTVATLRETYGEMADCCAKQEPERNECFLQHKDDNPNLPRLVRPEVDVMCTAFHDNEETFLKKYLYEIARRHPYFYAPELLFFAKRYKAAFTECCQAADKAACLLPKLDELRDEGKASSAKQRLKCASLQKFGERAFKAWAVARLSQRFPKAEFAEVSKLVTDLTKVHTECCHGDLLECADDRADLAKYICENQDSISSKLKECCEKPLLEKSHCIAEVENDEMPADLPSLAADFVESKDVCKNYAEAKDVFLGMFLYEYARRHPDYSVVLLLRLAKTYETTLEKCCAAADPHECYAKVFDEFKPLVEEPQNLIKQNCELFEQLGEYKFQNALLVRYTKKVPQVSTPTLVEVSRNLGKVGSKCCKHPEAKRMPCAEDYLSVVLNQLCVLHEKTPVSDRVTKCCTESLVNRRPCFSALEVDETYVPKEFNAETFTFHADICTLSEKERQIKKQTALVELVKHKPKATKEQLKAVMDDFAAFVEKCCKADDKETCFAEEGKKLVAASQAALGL

## CC(C)c1nc(N(C)S(C)(=O)=O)nc(-c2ccc(F)cc2)c1/C=C/[C@@H](O)C[C@@H](O)CC(=O)O [rosuvastatin]
Human serum albumin; mean ± SD
  Kd: 127 ± 5.6 µM
Human serum albumin; [6]
  fraction unbound at 6 h: 0.435 ± 0.041
Human serum albumin; [7]
  fraction unbound at 6 h: 0.18 ± 0.009
OAT1/3 [1]
  CLint,sec Predicted 0% HSA: 6.80 L/h
  CLint,sec Predicted 1% HSA: 13.6 L/h
  CLint,sec Predicted 4% HSA: 17.7 L/h
  CLsec Predicted 0% HSA: 0.78 L/h
  CLsec Predicted 1% HSA: 1.52 L/h
  CLsec Predicted 4% HSA: 1.96 L/h
OAT1/3 [2]
  CLint,sec Predicted 0% HSA: 34.3 L/h
  CLint,sec Predicted 1% HSA: 68.3 L/h
  CLint,sec Predicted 4% HSA: 89.0 L/h
  CLsec Predicted 0% HSA: 3.64 L/h
  CLsec Predicted 1% HSA: 6.66 L/h
  CLsec Predicted 4% HSA: 8.27 L/h
[3]
  CLint,sec Observed: 130 L/h
  CLsec Observed: 11.1 L/h
[4]
  CLr Observed: 11.9 L/h
OAT1
  OAT1 substrate status (uptake in ciPTEC-OAT1): did not show any appreciable uptake
OAT3
  ratio of CLint,u,active (R) (HSA/control) 1%: 2.12 ± 0.58
  ratio of CLint,u,active (R) (HSA/control) 4%: 2.7 and 2.68 ± 0.62
  Vb,max OAT3, Active and Passive Uptake: 290 ± 101 pmol/min/mg
  Vb,max OAT3, Active Uptake Only: 281 ± 96 pmol/min/mg

## Cc1ncc(CO)c(C(=O)O)c1O [4-pyridoxic acid]
Human serum albumin; mean ± SD
  Kd: 56.4 ± 2.5 µM
Human serum albumin; 0.5% HSA in DPBS, 0.5% HSA, mean ± S.D., read-out: fu,inc
  fraction unbound at 6 h: 0.4 ± 0.042
Human serum albumin; [6]
  fraction unbound at 6 h: 0.298 ± 0.005
Human serum albumin; 2% HSA in DPBS, 2% HSA, mean ± S.D., read-out: fu,inc
  fraction unbound at 6 h: 0.163 ± 0.005
Human serum albumin; [7]
  fraction unbound at 6 h: 0.079 ± 0.006
OAT1/3 [1]
  CLint,sec Predicted 0% HSA: 3.46 L/h
  CLint,sec Predicted 1% HSA: 7.85 L/h
  CLint,sec Predicted 4% HSA: 12.6 L/h
  CLsec Predicted 0% HSA: 0.29 L/h
  CLsec Predicted 1% HSA: 0.66 L/h
  CLsec Predicted 4% HSA: 1.05 L/h
OAT1/3 [1]; regardless of albumin inclusion and of RAF/REF approach
  Predicted CLr, CLsec and CLint,sec as % of observed: < 20%
OAT1/3 [2]
  CLint,sec Predicted 0% HSA: 8.79 L/h
  CLint,sec Predicted 1% HSA: 22.1 L/h
  CLint,sec Predicted 4% HSA: 32.6 L/h
  CLsec Predicted 0% HSA: 0.74 L/h
  CLsec Predicted 1% HSA: 1.79 L/h
  CLsec Predicted 4% HSA: 2.57 L/h
[4]
  CLr Observed: 15.6 L/h
OAT1; 0.5% HSA, total concentration constant at 10 µM, preliminary
  fold increase in OAT1 CLint,u,active versus control: 1.50 fold
OAT1; 0.5% HSA, unbound concentration constant at 1.0 µM
  fold increase in OAT1 CLint,u,active versus control: 1.50 fold
OAT1; 1.0% HSA, total concentration constant at 10 µM, preliminary
  fold increase in OAT1 CLint,u,active versus control: 1.82 fold
OAT1; 2.0% HSA, total concentration constant at 10 µM, preliminary
  fold increase in OAT1 CLint,u,active versus control: 0.93 fold
OAT1; 2.0% HSA, unbound concentration constant at 1.0 µM
  fold increase in OAT1 CLint,u,active versus control: 1.79 fold
OAT1; 4.0% HSA, total concentration constant at 10 µM, preliminary
  fold increase in OAT1 CLint,u,active versus control: 2.2 fold
OAT1
  ratio of CLint,u,active (R) (HSA/control) 1%: 1.92 ± 0.65
  ratio of CLint,u,active (R) (HSA/control) 4%: 3.46 ± 0.47
  OAT1 substrate status (uptake in ciPTEC-OAT1): dual OAT1/3 substrates
  Vb,max OAT1, Active and Passive Uptake: 222 ± 24.6 pmol/min/mg
  Vb,max OAT1, Active Uptake Only: 213 ± 24 pmol/min/mg
  Change to passive diffusion clearance upon inclusion of 1% HSA: minimal change
OAT1; listed as PDA
  ratio of CLint,u,active (R) (HSA/control) 1%: 1.92
  ratio of CLint,u,active (R) (HSA/control) 4%: 3.46
  Change to passive diffusion clearance upon inclusion of 1% HSA: minimal changes
OAT1; ciPTEC-OAT1, 300 µM probenecid
  unbound passive diffusion clearance (CLpd): 0.031 µL/min/mg
OAT1; ciPTEC-OAT1, 1.0% HSA + 300 µM probenecid
  unbound passive diffusion clearance (CLpd): 0.039 µL/min/mg
OAT3
  ratio of CLint,u,active (R) (HSA/control) 1%: 2.64 ± 1.12
  ratio of CLint,u,active (R) (HSA/control) 4%: 3.85 ± 1.30
  OAT3 substrate status (uptake in ciPTEC-OAT3): dual OAT1/3 substrates
  Vb,max OAT3, Active and Passive Uptake: 53.1 ± 17.1 pmol/min/mg
  Vb,max OAT3, Active Uptake Only: 51.9 ± 15.8 pmol/min/mg
[5]
  CLint,sec Observed: 340 L/h
  CLsec Observed: 14.8 L/h

## CCCc1nc(C(C)(C)O)c(C(=O)O)n1Cc1ccc(-c2ccccc2-c2nnn[nH]2)cc1 [olmesartan]
Human serum albumin; mean ± SD
  Kd: 1.43 ± 0.1 µM
Human serum albumin; [6]
  fraction unbound at 6 h: 0.011 ± 0.001
Human serum albumin; [7]
  fraction unbound at 6 h: 0.002 ± 0.0002
OAT1/3 [1]; 4% HSA, REF scaler
  Predicted in vivo percentage transported via OAT1 (versus OAT3): 33.1%
OAT1/3 [1]
  CLint,sec Predicted 0% HSA: 7.92 L/h
  CLint,sec Predicted 1% HSA: 85.2 L/h
  CLint,sec Predicted 4% HSA: 284 L/h
  CLsec Predicted 0% HSA: 0.02 L/h
  CLsec Predicted 1% HSA: 0.22 L/h
  CLsec Predicted 4% HSA: 0.74 L/h
OAT1/3 [1]; control phase (0% HSA)
  Predicted in vivo percentage transported via OAT1 (versus OAT3): 7.9%
OAT1/3 [2]
  CLint,sec Predicted 0% HSA: 34.2 L/h
  CLint,sec Predicted 1% HSA: 355 L/h
  CLint,sec Predicted 4% HSA: 976 L/h
  CLsec Predicted 0% HSA: 0.09 L/h
  CLsec Predicted 1% HSA: 0.92 L/h
  CLsec Predicted 4% HSA: 2.40 L/h
[4]
  CLr Observed: 0.61 L/h
OAT1
  ratio of CLint,u,active (R) (HSA/control) 1%: 17.9 ± 4.0
  ratio of CLint,u,active (R) (HSA/control) 4%: 122 and 122 ± 42
  OAT1 substrate status (uptake in ciPTEC-OAT1): dual OAT1/3 substrates
  Vb,max OAT1, Active and Passive Uptake: 75.7 ± 15.5 pmol/min/mg
  Vb,max OAT1, Active Uptake Only: 72.7 ± 15.0 pmol/min/mg
OAT3
  ratio of CLint,u,active (R) (HSA/control) 1%: 10.5 ± 2.3
  ratio of CLint,u,active (R) (HSA/control) 4%: 28 and 28.1 ± 3.0
  OAT3 substrate status (uptake in ciPTEC-OAT3): dual OAT1/3 substrates
  Vb,max OAT3, Active and Passive Uptake: 46.2 ± 12.3 pmol/min/mg
  Vb,max OAT3, Active Uptake Only: 44.2 ± 12.3 pmol/min/mg
[5]
  CLint,sec Observed: 229 L/h
  CLsec Observed: 0.59 L/h
[5]; listed as Olmesartan
  CLint,sec Observed: 228 L/h
